Experimental findings from US12268694B2, “Combination pharmaceutical agents as RSV inhibitors” (Enanta Pharmaceuticals, Inc., priority 2017, dated 2025) are described below.

SMILES strings stand for the structures.

The first data set has as its system genotype A, "Long" strain RSV. Briefly: RSV-A assay: CPE protection in HEp-2 cells, ATPlite readout. The data set is classed as cell-based, human respiratory syncytial virus. As to conditions: HEp-2 cells, RSV-A Long strain, ATPlite readout; read-out: Human RSV-A (“Long” strain) EC50. The method in brief: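 HEp-2 cells (8,000/well) with 2-fold compound dilutions in duplicate, infected with Long-strain RSV at MOI 0.1 and incubated 5 days. Cell ATP measured by ATPlite luminescence to give EC50; uninfected parallel plate gives CC50.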
Background: Cellular ATP, detected with luciferase, serves as a proxy for viable cell number.
As to `O=C1Nc2ccccc2C(c2ccccc2)=N[C@@H]1Nc1ncc(-c2ncc(C(F)(F)F)cc2N2CCOCC2)o1` [Example 442], the 50% effective concentration (EC50) (usually the concentration giving half of the maximal effect) is below 400 nM.
Still for that read-out and setting: as for `O=C1Nc2ccccc2C(c2ccccc2)=N[C@@H]1Nc1nnc(-c2cn(-c3ccc(C(F)(F)F)nc3)nc2N2CCOCC2)o1` [Example 444], the figure is below 400 nM; as for `O=C1Nc2ccccc2C(c2ccccc2)=N[C@@H]1Nc1nnc(-c2cn(CC3CC3)nc2N2CCOCC2)o1` [Example 446], below 400 nM; as for `O=C1Nc2ccccc2C(c2ccccc2)=N[C@@H]1Nc1nnc(-c2cn(CC3CC3)nc2N2CCOCC2)o1` [Example 447], 400 to 800 nM.
The same measure, in the same setting: as for `O=C1Nc2ccccc2C(c2ccccc2)=N[C@@H]1Nc1nnc(-c2nc(C(F)(F)F)sc2N2CCO[C@@H]3C[C@@H]32)o1` [Example 484], the figure is below 400 nM; as for `O=C1Nc2ccccc2C(c2ccccc2)=N[C@@H]1Nc1nnc(-c2nc(C(F)(F)F)sc2N2CCO[C@H]3C[C@H]32)o1` [Example 485], above 800 nM.
Take `O=C1Nc2ccccc2C(c2ccccc2)=N[C@H]1Nc1nnc(-c2nc(C(F)(F)F)sc2N2CCO[C@@H]3C[C@@H]32)o1` [Example 486]: the EC50 is above 800 nM.
Same read-out and setting: as for `O=C1Nc2ccccc2C(c2ccccc2)=N[C@H]1Nc1nnc(-c2nc(C(F)(F)F)sc2N2CCO[C@H]3C[C@H]32)o1` [Example 487], the figure is above 800 nM.
On the same count and under the same terms, as for `O=C1Nc2ccccc2C(c2ccccc2)=N[C@H]1Nc1nnc(-c2cn(CC(F)(F)F)nc2N2CCOCC2)o1` [Example 488], the figure is below 400 nM.
Still for that read-out and setting: as for `O=C1Nc2ccccc2C(c2ccccc2)=N[C@@H]1Nc1nnc(-c2cn(CC(F)(F)F)nc2N2CCOCC2)o1` [Example 489], the figure is above 800 nM.

The same data set, now with this note: human respiratory syncytial virus, HEp-2, read-out: Human RSV-A (“Long” strain) EC50.
Turning to `COCCOc1cccc(-c2nnc(NC3N=C(c4ccccc4)c4ccccc4NC3=O)o2)c1` (stereo not shown) [Example 1], the EC50 is above 800 nM.
The same measure, in the same setting: as for `O=C1Nc2ccccc2C(c2ccccc2)=NC1Nc1nnc(-c2ccccc2)o1` (stereo not shown) [Example 2], the figure is above 800 nM.
Same read-out and setting: as for `O=C1Nc2ccccc2C(c2ccccc2)=NC1Nc1nnc(-c2cccc(F)c2)o1` (stereo not shown) [Example 3], the figure is above 800 nM.
The same measure, in the same setting: as for `COc1cccc(-c2nnc(NC3N=C(c4ccccc4)c4ccccc4NC3=O)o2)c1` (stereo not shown) [Example 4], the figure is above 800 nM.
In the case of `O=C1Nc2ccccc2C(c2ccccc2)=NC1Nc1nnc(C2CC2)o1` (stereo not shown) [Example 5], the EC50 was above 800 nM.
Same read-out and setting: as for `O=C1Nc2ccccc2C(c2ccccc2)=NC1Nc1nnc(-c2ccccc2F)o1` (stereo not shown) [Example 6], the figure is above 800 nM.
On the same count and under the same terms, as for `O=C1Nc2ccccc2C(c2ccccc2)=N[C@H]1Nc1nnc(-c2ccc(F)cc2)o1` [Example 7b], the figure is above 800 nM.
On to `COc1ccc(-c2nnc(NC3N=C(c4ccccc4)c4ccccc4NC3=O)o2)cc1` (stereo not shown) [Example 8], for which the concentration for a half-maximal effect (EC50) is above 800 nM.
Still for that read-out and setting: as for `COc1ccccc1-c1nnc(NC2N=C(c3ccccc3)c3ccccc3NC2=O)o1` (stereo not shown) [Example 9], the figure is above 800 nM.
Still for that read-out and setting: as for `COCCN1CCCn2ncc(-c3nnc(N[C@H]4N=C(c5ccccc5)c5ccccc5NC4=O)o3)c21` [Example 438], the figure is 400 to 800 nM.
The same measure, in the same setting: as for `COC1C2CN(c3cc(C(F)(F)F)cnc3-c3nnc(N[C@H]4N=C(c5ccccc5)c5ccccc5NC4=O)o3)CC21` (stereo partly shown) [Example 439], the figure is above 800 nM; as for `O=C1Nc2ccccc2C(c2ccccc2)=N[C@@H]1Nc1nnc(-c2cn(-c3ccc(C(F)(F)F)cn3)nc2N2CCOCC2)o1` [Example 440], 400 to 800 nM; as for `N#Cc1ccn2ncc(-c3nnc(N[C@H]4N=C(c5ccccc5)c5ccccc5NC4=O)o3)c2c1` [Example 441], above 800 nM.
On to `O=C1Nc2ccccc2C(c2ccccc2)=N[C@@H]1Nc1nnc(-c2cn(-c3ccc(F)cn3)nc2N2CCOCC2)o1` [Example 448], for which the half-maximal effective concentration (EC50) is below 400 nM.
On the same count and under the same terms, as for `COCc1ccn2ncc(-c3nnc(N[C@H]4N=C(c5ccccc5)c5ccccc5NC4=O)o3)c2c1` [Example 449], the figure is above 800 nM; as for `O=C1Nc2ccccc2C(c2ccccc2)=NC1Nc1nnc(-c2ncc(C(F)(F)F)cc2CCO)o1` (stereo not shown) [Example 450], above 800 nM.
Regarding `COC[C@@H](C)Nc1sc(C(F)(F)F)nc1-c1nnc(N[C@H]2N=C(c3ccccc3)c3ccccc3NC2=O)o1` [Example 451], the concentration giving a half-maximal response (EC50) is 400 to 800 nM.
On the same count and under the same terms, as for `CO[C@@H](C)CNc1sc(C(F)(F)F)nc1-c1nnc(N[C@H]2N=C(c3ccccc3)c3ccccc3NC2=O)o1` [Example 452], the figure is below 400 nM; as for `O=C1Nc2ccccc2C(c2ccccc2)=N[C@@H]1Nc1nnc(-c2nc(C(F)(F)F)sc2C2=CCOCC2)o1` [Example 453], below 400 nM; as for `O=C1Nc2ccccc2C(c2ccccc2)=N[C@@H]1Nc1nnc(-c2nc(C(F)(F)C(F)(F)F)sc2N2CCOCC2)o1` [Example 454], below 400 nM.
As to `O=C1Nc2ccccc2C(c2ccccc2)=N[C@@H]1Nc1nnc(-c2nc(C3(O)CCC3)sc2N2CCOCC2)o1` [Example 455], the EC50 is below 400 nM.
On the same count and under the same terms, as for `COC[C@H]1CCCN1c1sc(C(F)(F)F)nc1-c1nnc(N[C@H]2N=C(c3ccccc3)c3ccccc3NC2=O)o1` [Example 456], the figure is above 800 nM; as for `COC[C@@H]1CCCN1c1sc(C(F)(F)F)nc1-c1nnc(N[C@H]2N=C(c3ccccc3)c3ccccc3NC2=O)o1` [Example 457], above 800 nM.
Same read-out and setting: as for `CC(C)(c1nc(-c2nnc(N[C@H]3N=C(c4ccccc4)c4ccccc4NC3=O)o2)c(N2CCOCC2)s1)N1CCOCC1` [Example 459], the figure is below 400 nM.
In the case of `O=C1Nc2ccccc2C(c2ccccc2)=N[C@@H]1Nc1nnc(-c2nc(C3(C(F)(F)F)CC3)sc2N2CCOCC2)o1` [Example 460], the EC50 was below 400 nM.
On the same count and under the same terms, as for `O=C1Nc2ccccc2C(c2ccccc2)=NC1Nc1nnc(-c2ncc(C(F)F)cc2N2CCOCC2)o1` (stereo not shown) [Example 461], the figure is below 400 nM; as for `O=C1Nc2ccccc2C(c2ccccc2)=NC1Nc1cc(-c2ccccc2)cnn1` (stereo not shown) [Example 462], above 800 nM; as for `O=C1Nc2ccccc2C(c2ccccc2)=NC1Nc1cc(N2CCOCC2)cnn1` (stereo not shown) [Example 463], above 800 nM.
Regarding `O=C1Nc2ccccc2C(c2ccccc2)=N[C@@H]1Nc1nnc(-c2ncc(C(F)(F)F)cc2N[C@@H]2CCOC2)o1` [Example 464], the 50% effective concentration (EC50) is below 400 nM.
In the case of `Cc1nsc(N2CCOCC2)c1-c1nnc(N[C@H]2N=C(c3ccccc3)c3ccccc3NC2=O)o1` [Example 465], the concentration giving a half-maximal response (EC50) lay in the range of 400 to 800 nM.
Same read-out and setting: as for `O=C1Nc2ccccc2C(c2ccccc2)=N[C@@H]1Nc1nnc(-c2ncc(C(F)(F)F)cc2N2CCOc3ccccc32)o1` [Example 468], the figure is above 800 nM; as for `O=C1Nc2ccccc2C(c2ccccc2)=N[C@@H]1Nc1nnc(-c2ncc(C(F)(F)F)cc2NC2COC2)o1` [Example 469], below 400 nM.
Same read-out and setting: as for `O=C1Nc2ccccc2C(c2ccccc2)=N[C@@H]1Nc1nnc(-c2ncc(C(F)(F)F)cc2N[C@H]2CCOC2)o1` [Example 470], the figure is above 800 nM; as for `COCCNc1sccc1-c1nnc(N[C@H]2N=C(c3ccccc3)c3ccccc3NC2=O)o1` [Example 472], above 800 nM; as for `COCCNc1sc(C(F)(F)F)nc1-c1nnc(N[C@H]2N=C(c3ccccc3)c3ccccc3NC2=O)o1` [Example 473], below 400 nM.
As for `O=C1Nc2ccccc2C(c2ccccc2)=N[C@@H]1Nc1nnc(-c2nc(C(F)(F)F)sc2N[C@@H]2CCOC2)o1` [Example 474], the 50% effective concentration (EC50) is below 400 nM.
The same measure, in the same setting: as for `O=C1Nc2ccccc2C(c2ccccc2)=N[C@@H]1Nc1nnc(-c2nc(C(F)(F)F)sc2NCC2COC2)o1` [Example 475], the figure is 400 to 800 nM; as for `O=C1Nc2ccccc2C(c2ccccc2)=N[C@@H]1Nc1nnc(-c2oc3cc(F)ccc3c2N2CCOCC2)o1` [Example 476], 400 to 800 nM; as for `O=C1Nc2ccccc2C(c2ccccc2)=N[C@@H]1Nc1nnc(-c2oc3cccc(F)c3c2N2CCOCC2)o1` [Example 477], below 400 nM.
`CC1(c2nc(-c3nnc(N[C@H]4N=C(c5ccccc5)c5ccccc5NC4=O)o3)c(N3CCOCC3)s2)CCC1` [Example 478]: the EC50 was below 400 nM.
As to `COCCCc1sc(C)nc1-c1nnc(N[C@H]2N=C(c3ccccc3)c3ccccc3NC2=O)o1` [Example 479], the 50% effective concentration (EC50) was above 800 nM.
Still for that read-out and setting: as for `O=C1Nc2ccccc2C(c2ccccc2)=N[C@@H]1Nc1nnc(-c2nc(C3(C(F)(F)F)CCC3)sc2N2CCOCC2)o1` [Example 490], the figure is below 400 nM.

For a further data set, the system named is HEp-2 cells. Description: Cytotoxicity in parallel to the RSV-A assay (no virus), ATPlite readout. The format is cell-based, human.
Conditions: not given
As for the experimental part:
Following extensive parameter testing, the final assay is run as follows: HEp-2 cells are seeded into the inner 60 wells of a 96-well plate at 8,000 cells per well in a volume of 50 μL using Growth Media (DMEM without phenol red, 1% L-Glut, 1% Penn/Strep, 1% nonessential amino acids, 10% heat-inactivated FBS). 2-fold serial dilutions of control and test compounds are added to the wells in duplicate in a total volume of 25 μL. Viral stock is then added to the wells at a multiplicity of infection (MOI) of 0.1 in a volume of 25 μL, bringing the total volume of each well to 100 μL. The MOI is calculated using the PFU/mL, or TCID50 if unavailable. Each 96-well plate has a control column of 6 wells with cells and virus but no compound (negative control, max CPE), a column with cells but no compound or virus (positive control, minimum CPE), and a column with no cells or virus or compound (background plate/reagent control). The control wells with cells but no virus are given an additional 25 μL of growth media containing an equal quantity of sucrose as those wells receiving the viral stock in order to keep consistent in media and volume conditions. The outer wells of the plate are filled with 125 μL of moat media (DMEM, 1% Penn/Strep) to act as a thermal and evaporative moat around the test wells. Following a 5-day incubation period, the plates are read using ATPlite (50 μL added per well), which quantifies the amount of ATP (a measure of cell health) present in each well. Assay plates are read using the Envision luminometer. In parallel, cytotoxicity is examined on an additional 96-well plate treated in an identical manner, but substituting the 25 μL of viral stock for 25 μL of growth media. […] EC50 ranges are as follows: A <0.4 μM; B 0.4-0.8 μM; C >0.8 μM and CC50 ranges are as follows: A >50 μM; B 10-50 μM; C <10 μM.
Regarding `COCCOc1cccc(-c2nnc(NC3N=C(c4ccccc4)c4ccccc4NC3=O)o2)c1` (stereo not shown) [Example 1], the CC50 – broadly, the concentration that lowers cell viability or growth by half – was above 50000 nM.
Still for that read-out and setting: as for `O=C1Nc2ccccc2C(c2ccccc2)=NC1Nc1nnc(-c2ccccc2)o1` (stereo not shown) [Example 2], the figure is above 50000 nM; as for `O=C1Nc2ccccc2C(c2ccccc2)=NC1Nc1nnc(-c2cccc(F)c2)o1` (stereo not shown) [Example 3], above 50000 nM; as for `COc1cccc(-c2nnc(NC3N=C(c4ccccc4)c4ccccc4NC3=O)o2)c1` (stereo not shown) [Example 4], above 50000 nM.
`O=C1Nc2ccccc2C(c2ccccc2)=NC1Nc1nnc(C2CC2)o1` (stereo not shown) [Example 5] yielded a 50% cytotoxic concentration (CC50) above 50000 nM.
Same read-out and setting: as for `O=C1Nc2ccccc2C(c2ccccc2)=NC1Nc1nnc(-c2ccccc2F)o1` (stereo not shown) [Example 6], the figure is above 50000 nM; as for `O=C1Nc2ccccc2C(c2ccccc2)=N[C@H]1Nc1nnc(-c2ccc(F)cc2)o1` [Example 7b], 10000 to 50000 nM.
On the same count and under the same terms, as for `COc1ccc(-c2nnc(NC3N=C(c4ccccc4)c4ccccc4NC3=O)o2)cc1` (stereo not shown) [Example 8], the figure is above 50000 nM.
Same read-out and setting: as for `COc1ccccc1-c1nnc(NC2N=C(c3ccccc3)c3ccccc3NC2=O)o1` (stereo not shown) [Example 9], the figure is above 50000 nM.
